Key:
EZH1 Complex = EZH1 Complex (Homo sapiens, UniProt Q92800); assay: biochemical; set-up: complex; protein methyltransferase inhibition panel, single concentration, duplicate
Method: (§1) We next assessed selectivity of MS67 against 22 protein methyltransferases (table S2) and a broad panel of common drug targets including 45 kinases (table S3) and 44 G protein–coupled receptors (GPCR), ion channels, and transporters (table S4). […] We subsequently determined that MS67 had moderate binding affinity (Ki = 1.0 ± 0.8 μM) to Sigma 2 receptor (fig. S10).

EZH2 Complex = EZH2 Complex (Homo sapiens, UniProt Q15910); assay: biochemical; set-up: complex; protein methyltransferase inhibition panel, single concentration, duplicate
Method: as §1

PRMT5/MEP50 Complex = PRMT5/MEP50 Complex (Homo sapiens, UniProt O14744); assay: biochemical; set-up: complex; protein methyltransferase inhibition panel, single concentration, duplicate
Method: as §1

PRMT7 = molecular target: T1, PRMT7 (Homo sapiens, UniProt Q9NVM4); assay: biochemical; set-up: protein methyltransferase inhibition panel, single concentration, duplicate
T1 sequence (Q9NVM4 1-692): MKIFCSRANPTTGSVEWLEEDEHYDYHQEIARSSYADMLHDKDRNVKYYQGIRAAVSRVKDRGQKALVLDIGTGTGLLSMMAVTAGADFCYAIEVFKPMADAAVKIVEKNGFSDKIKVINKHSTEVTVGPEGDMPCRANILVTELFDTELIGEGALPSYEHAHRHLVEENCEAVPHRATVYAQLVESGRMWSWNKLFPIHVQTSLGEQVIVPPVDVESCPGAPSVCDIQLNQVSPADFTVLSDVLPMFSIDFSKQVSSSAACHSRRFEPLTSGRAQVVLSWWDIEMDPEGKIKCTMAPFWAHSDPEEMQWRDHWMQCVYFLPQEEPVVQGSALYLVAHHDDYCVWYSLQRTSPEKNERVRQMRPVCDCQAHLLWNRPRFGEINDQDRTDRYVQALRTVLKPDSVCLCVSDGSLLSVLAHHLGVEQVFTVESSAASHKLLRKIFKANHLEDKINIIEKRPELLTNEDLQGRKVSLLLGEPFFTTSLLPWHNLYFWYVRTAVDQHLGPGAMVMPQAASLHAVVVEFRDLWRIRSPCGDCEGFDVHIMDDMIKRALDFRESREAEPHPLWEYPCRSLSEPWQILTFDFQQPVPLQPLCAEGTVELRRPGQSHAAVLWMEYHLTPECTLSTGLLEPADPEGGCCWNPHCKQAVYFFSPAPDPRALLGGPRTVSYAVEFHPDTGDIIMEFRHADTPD
Method: as §1

GSK3β = molecular target: T2, GSK3β (Homo sapiens, UniProt P49841); assay: biochemical; set-up: kinase selectivity panel, single concentration, duplicate
T2 construct: gene GSK3B
Method: as §1

NEK2 = NEK2 (Homo sapiens, UniProt P51955); assay: biochemical; set-up: kinase selectivity panel, single concentration, duplicate
Method: as §1

PKA = molecular target: T3, PKA (Homo sapiens, UniProt P17612); assay: biochemical; set-up: kinase selectivity panel, single concentration, duplicate
T3 construct: gene PRKACA
Method: as §1

FGFR3 = FGFR3 (Homo sapiens, UniProt P22607); assay: biochemical; set-up: kinase selectivity panel, single concentration, duplicate
Method: as §1

PKCβII = molecular target: T4, PKCβII (Homo sapiens, UniProt P05771); assay: biochemical; set-up: kinase selectivity panel, single concentration, duplicate
T4 construct: gene PRKCB; isoform beta II
Method: as §1

JAK3 = JAK3 (Homo sapiens, UniProt P52333); assay: biochemical; set-up: kinase selectivity panel, single concentration, duplicate
Method: as §1

SGK = molecular target: T5, SGK (Homo sapiens, UniProt O00141); assay: biochemical; set-up: kinase selectivity panel, single concentration, duplicate
T5 construct: gene SGK1
Method: as §1

Pim-2 = molecular target: T6, Pim-2 (Homo sapiens, UniProt Q9P1W9); assay: biochemical; set-up: kinase selectivity panel, single concentration, duplicate
T6 construct: gene PIM2
Method: as §1

SAPK2a = molecular target: T7, SAPK2a (Homo sapiens, UniProt Q16539); assay: biochemical; set-up: kinase selectivity panel, single concentration, duplicate
T7 construct: gene MAPK14
Method: as §1

von Hippel–Lindau (VHL) = von Hippel–Lindau (VHL) (Homo sapiens, UniProt P40337); assay: ITC; […]-Å crystal structure of WDR5-MS67-VCB ternary complex; type: binding
Chain of von Hippel–Lindau (VHL) (P40337 whole entry): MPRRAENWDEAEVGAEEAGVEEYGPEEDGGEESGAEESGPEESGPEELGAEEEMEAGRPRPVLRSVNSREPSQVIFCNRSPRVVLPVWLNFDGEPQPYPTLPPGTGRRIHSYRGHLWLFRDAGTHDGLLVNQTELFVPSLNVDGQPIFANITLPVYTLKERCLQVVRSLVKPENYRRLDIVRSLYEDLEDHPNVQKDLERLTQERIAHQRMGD
Chain of von Hippel–Lindau (VHL) (Q15369 whole entry partner): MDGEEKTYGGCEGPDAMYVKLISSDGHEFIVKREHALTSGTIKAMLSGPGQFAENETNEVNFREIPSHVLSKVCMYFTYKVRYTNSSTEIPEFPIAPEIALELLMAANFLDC
Chain of von Hippel–Lindau (VHL) (Q15370 whole entry partner): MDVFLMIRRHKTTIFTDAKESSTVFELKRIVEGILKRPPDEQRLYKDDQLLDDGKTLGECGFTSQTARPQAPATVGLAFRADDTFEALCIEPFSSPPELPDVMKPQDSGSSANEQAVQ

T5 sequence (O00141 whole entry): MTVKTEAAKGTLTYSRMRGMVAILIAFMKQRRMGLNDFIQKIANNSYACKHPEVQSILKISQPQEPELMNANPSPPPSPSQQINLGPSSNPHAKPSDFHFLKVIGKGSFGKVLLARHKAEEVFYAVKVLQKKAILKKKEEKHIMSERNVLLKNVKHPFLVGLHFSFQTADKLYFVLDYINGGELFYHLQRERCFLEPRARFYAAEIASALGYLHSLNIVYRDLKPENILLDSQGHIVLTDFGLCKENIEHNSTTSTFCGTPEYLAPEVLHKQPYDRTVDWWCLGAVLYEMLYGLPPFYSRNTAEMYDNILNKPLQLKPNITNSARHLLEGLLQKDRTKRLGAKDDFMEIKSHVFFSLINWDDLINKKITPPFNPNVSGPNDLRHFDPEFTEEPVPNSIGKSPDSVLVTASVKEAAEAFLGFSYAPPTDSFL
T7 sequence (Q16539 whole entry): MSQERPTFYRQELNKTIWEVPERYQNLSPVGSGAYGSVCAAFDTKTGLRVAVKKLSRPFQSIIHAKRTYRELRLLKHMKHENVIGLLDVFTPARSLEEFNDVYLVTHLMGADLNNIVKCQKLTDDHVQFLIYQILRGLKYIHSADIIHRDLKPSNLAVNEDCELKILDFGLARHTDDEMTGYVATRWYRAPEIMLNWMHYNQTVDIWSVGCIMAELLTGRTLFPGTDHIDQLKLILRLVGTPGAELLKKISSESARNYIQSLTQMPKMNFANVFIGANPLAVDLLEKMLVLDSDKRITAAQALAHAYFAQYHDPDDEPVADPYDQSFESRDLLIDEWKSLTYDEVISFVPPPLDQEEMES
T6 sequence (Q9P1W9 whole entry): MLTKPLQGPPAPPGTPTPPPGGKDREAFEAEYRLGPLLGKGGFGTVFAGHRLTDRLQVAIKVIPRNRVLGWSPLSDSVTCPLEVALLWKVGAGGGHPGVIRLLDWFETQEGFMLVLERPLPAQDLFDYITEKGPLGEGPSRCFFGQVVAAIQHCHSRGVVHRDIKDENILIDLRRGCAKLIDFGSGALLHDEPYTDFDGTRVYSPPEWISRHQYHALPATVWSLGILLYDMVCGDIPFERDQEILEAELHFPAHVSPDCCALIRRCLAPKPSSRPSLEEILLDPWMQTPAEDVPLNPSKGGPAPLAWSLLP
Chain of NEK2 (P51955 whole entry): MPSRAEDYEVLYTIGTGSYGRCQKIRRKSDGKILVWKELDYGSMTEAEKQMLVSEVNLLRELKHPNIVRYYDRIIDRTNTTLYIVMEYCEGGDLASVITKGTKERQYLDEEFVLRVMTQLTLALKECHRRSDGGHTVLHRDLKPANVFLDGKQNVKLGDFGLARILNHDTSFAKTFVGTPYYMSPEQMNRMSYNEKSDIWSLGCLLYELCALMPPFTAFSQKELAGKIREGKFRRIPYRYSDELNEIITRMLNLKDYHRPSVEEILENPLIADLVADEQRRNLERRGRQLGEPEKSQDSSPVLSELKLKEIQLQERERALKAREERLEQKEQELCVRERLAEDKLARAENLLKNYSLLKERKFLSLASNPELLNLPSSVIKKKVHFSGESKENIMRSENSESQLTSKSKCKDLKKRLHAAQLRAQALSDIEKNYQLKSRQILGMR
Chain of JAK3 (P52333 whole entry): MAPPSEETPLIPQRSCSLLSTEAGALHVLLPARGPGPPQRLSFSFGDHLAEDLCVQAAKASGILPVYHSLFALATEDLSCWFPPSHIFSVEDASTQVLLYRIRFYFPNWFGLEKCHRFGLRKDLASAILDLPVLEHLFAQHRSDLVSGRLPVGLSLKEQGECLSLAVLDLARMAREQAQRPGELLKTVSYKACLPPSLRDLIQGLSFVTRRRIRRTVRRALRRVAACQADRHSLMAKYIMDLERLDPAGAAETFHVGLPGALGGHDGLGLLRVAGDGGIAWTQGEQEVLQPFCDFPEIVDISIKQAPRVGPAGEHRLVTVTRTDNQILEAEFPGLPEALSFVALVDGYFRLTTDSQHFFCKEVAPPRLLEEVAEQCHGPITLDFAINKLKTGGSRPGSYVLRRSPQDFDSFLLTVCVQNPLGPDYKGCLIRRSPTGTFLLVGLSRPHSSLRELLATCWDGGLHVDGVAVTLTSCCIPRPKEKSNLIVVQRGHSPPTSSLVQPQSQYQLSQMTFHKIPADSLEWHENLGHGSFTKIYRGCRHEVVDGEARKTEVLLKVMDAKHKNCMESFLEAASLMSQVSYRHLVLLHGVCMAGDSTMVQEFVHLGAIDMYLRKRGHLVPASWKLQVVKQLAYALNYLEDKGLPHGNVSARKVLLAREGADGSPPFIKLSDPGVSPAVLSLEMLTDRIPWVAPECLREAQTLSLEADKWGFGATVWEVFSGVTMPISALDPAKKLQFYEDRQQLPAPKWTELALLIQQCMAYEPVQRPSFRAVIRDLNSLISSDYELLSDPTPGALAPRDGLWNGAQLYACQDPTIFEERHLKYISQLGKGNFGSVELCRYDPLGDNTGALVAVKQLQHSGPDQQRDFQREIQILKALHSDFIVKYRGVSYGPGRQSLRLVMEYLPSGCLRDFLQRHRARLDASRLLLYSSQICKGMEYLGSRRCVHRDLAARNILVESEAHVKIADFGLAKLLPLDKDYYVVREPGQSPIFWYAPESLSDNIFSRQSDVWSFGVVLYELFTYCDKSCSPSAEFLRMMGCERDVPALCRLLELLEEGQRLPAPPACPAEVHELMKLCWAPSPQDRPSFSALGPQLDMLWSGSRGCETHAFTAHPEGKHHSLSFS
Chain of FGFR3 (P22607 whole entry): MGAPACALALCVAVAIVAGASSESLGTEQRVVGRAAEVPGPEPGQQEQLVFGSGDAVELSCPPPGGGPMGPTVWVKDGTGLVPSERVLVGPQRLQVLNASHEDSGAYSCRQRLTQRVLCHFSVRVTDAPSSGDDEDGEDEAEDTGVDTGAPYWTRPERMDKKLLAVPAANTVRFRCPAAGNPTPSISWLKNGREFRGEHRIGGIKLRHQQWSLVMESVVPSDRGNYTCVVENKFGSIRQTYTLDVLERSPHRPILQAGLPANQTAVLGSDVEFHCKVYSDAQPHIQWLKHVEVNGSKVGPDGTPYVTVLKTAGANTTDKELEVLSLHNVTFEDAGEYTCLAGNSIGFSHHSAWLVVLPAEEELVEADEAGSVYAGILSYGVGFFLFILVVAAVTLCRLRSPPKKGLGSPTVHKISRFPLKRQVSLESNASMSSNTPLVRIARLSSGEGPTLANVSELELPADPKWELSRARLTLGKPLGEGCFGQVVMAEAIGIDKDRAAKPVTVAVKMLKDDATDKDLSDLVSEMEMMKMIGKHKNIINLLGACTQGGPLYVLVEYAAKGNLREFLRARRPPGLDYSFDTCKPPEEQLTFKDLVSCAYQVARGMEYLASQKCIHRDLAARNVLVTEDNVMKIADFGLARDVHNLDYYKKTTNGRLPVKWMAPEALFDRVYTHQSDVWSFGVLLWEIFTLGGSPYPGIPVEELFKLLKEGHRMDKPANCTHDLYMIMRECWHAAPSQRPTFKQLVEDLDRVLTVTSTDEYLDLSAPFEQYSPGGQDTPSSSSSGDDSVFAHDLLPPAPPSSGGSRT
T2 sequence (P49841 whole entry): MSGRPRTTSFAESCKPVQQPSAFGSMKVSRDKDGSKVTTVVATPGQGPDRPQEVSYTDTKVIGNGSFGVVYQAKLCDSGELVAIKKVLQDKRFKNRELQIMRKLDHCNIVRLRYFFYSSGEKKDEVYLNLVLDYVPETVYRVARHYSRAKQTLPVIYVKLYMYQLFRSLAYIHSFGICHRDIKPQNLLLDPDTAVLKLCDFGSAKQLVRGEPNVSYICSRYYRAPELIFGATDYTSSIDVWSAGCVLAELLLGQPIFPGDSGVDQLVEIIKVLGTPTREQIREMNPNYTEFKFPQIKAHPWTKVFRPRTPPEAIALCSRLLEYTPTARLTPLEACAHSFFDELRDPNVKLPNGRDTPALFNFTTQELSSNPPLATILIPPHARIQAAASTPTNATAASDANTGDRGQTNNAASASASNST

Cc1ncsc1-c1ccc([C@H](C)NC(=O)[C@@H]2C[C@@H](O)CN2C(=O)[C@@H](NC(=O)CNC(=O)c2ccc(F)c(-c3ccc(N4C[C@@H](C)N(C)[C@@H](C)C4)c(NC(=O)c4c[nH]c(=O)cc4C(F)(F)F)c3)c2)C(C)(C)C)cc1 [MS67]
< 10%: inhibition at 10 µM (EZH1 Complex) | inhibition at 10 µM (EZH2 Complex) | inhibition at 10 µM (PRMT5/MEP50 Complex) | inhibition at 10 µM (PRMT7) | inhibition at 1 µM (GSK3β) | inhibition at 1 µM (NEK2) | inhibition at 1 µM (PKA) | inhibition at 1 µM (FGFR3) | inhibition at 1 µM (PKCβII) | inhibition at 1 µM (JAK3) | inhibition at 1 µM (SGK) | inhibition at 1 µM (Pim-2) | inhibition at 1 µM (SAPK2a)
140 ± 7.2 nM: Kd (von Hippel–Lindau (VHL))

From publication PMC8500670, “A selective WDR5 degrader inhibits acute myeloid leukemia in patient-derived mouse models” (Science translational medicine, 2021)
